Laboratory results as given in the NIST ThermoML archive (doi:10.1016/j.jct.2014.08.005).

How the values were obtained:
[1] = Liquid, Vibrating tube method
[2] = wn = mass fraction of the nth substance listed; conditions: 101 kPa, Liquid, Vibrating tube method

CC(O)COC(C)COC(C)CO (configuration not stated) [2-[2-(2-hydroxypropoxy)propoxy]-1-propanol]
[1], 101 kPa
Conditions | mass density [kg/m3]
293.15 K | 1017.5
303.15 K | 1009.5
313.15 K | 1001.5
323.15 K | 993.4
333.15 K | 985.2
343.15 K | 976.9

OCCOCCOCCO [triethylene glycol]
[1], 101.33 kPa
Conditions | mass density [kg/m3]
293.15 K | 1124.7
303.15 K | 1117
313.15 K | 1109.2
323.15 K | 1101.5
333.15 K | 1093.7
343.15 K | 1085.9

CC(O)COC(C)COC(C)CO (configuration not stated) [2-[2-(2-hydroxypropoxy)propoxy]-1-propanol] + O
mass density [kg/m3], [2]
Conditions | 293.15 K | 303.15 K | 313.15 K | 323.15 K | 333.15 K | 343.15 K
w1 = 0.2 | 1019.4 | 1015.2 | 1010.2 | 1004.5 | 998.4 | 991.6
w1 = 0.4 | 1037.1 | 1030.1 | 1022.9 | 1015.5 | 1007.7 | 999.6
w1 = 0.6 | 1041.1 | 1033.2 | 1025.2 | 1017.2 | 1008.7 | 1000.2
w1 = 0.8 | 1030.7 | 1023.1 | 1015.4 | 1007.6 | 999.5 | 990.9
w1 = 1 | 1017.5 | 1009.5 | 1001.5 | 993.4 | 985.2 | 976.9
